Results published in ChEMBL document CHEMBL4837183, “Antiproliferative Bufadienolides from the Bulbs of Drimia altissima” (2021).

Legend:
Assay type in all cases: functional
HCT-116 = assay: Growth inhibition of human HCT-116 cells measured after 48 hrs by SRB assay
NCI-H23 = assay: Growth inhibition of human NCI-H23 cells measured after 48 hrs by SRB assay
SN12C = assay: Growth inhibition of human SN12C cells measured after 48 hrs by SRB assay
HOP-92 = assay: Growth inhibition of human HOP-92 cells measured after 48 hrs by SRB assay
A498 = assay: Growth inhibition of human A498 cells measured after 48 hrs by SRB assay
SK-MEL-5 = assay: Growth inhibition of human SK-MEL-5 cells measured after 48 hrs by SRB assay
M14 = assay: Growth inhibition of human M14 cells measured after 48 hrs by SRB assay
IGROV-1 = assay: Growth inhibition of human IGROV-1 cells measured after 48 hrs by SRB assay
CCRF-CEM = assay: Growth inhibition of human CCRF-CEM cells measured after 48 hrs by SRB assay
A549 = assay: Growth inhibition of human A549 cells measured after 48 hrs by SRB assay
HCT-15 = assay: Growth inhibition of human HCT-15 cells measured after 48 hrs by SRB assay
COLO 205 = assay: Growth inhibition of human COLO 205 cells measured after 48 hrs by SRB assay
HCC 2998 = assay: Growth inhibition of human HCC 2998 cells measured after 48 hrs by SRB assay
NCI/ADR-RES = assay: Growth inhibition of human NCI/ADR-RES cells measured after 48 hrs by SRB assay
HL-60 = assay: Growth inhibition of human HL-60 cells measured after 48 hrs by SRB assay
SK-OV-3 = assay: Growth inhibition of human SK-OV-3 cells measured after 48 hrs by SRB assay
BT-549 = assay: Growth inhibition of human BT-549 cells measured after 48 hrs by SRB assay
CAKI-1 = assay: Growth inhibition of human CAKI-1 cells measured after 48 hrs by SRB assay
T47D = assay: Growth inhibition of human T47D cells measured after 48 hrs by SRB assay
MDA-MB-468 = assay: Growth inhibition of human MDA-MB-468 cells measured after 48 hrs by SRB assay
ACHN = assay: Growth inhibition of human ACHN cells measured after 48 hrs by SRB assay
TK-10 = assay: Growth inhibition of human TK-10 cells measured after 48 hrs by SRB assay
OVCAR-8 = assay: Growth inhibition of human OVCAR-8 cells measured after 48 hrs by SRB assay
SK-MEL-28 = assay: Growth inhibition of human SK-MEL-28 cells measured after 48 hrs by SRB assay
NCI-H522 = assay: Growth inhibition of human NCI-H522 cells measured after 48 hrs by SRB assay
SF-295 = assay: Growth inhibition of human SF-295 cells measured after 48 hrs by SRB assay
UO-31 = assay: Growth inhibition of human UO-31 cells measured after 48 hrs by SRB assay
Hs-578T = assay: Growth inhibition of human Hs-578T cells measured after 48 hrs by SRB assay
LOX IMVI = assay: Growth inhibition of human LOX IMVI cells measured after 48 hrs by SRB assay
DU-145 = assay: Growth inhibition of human DU-145 cells measured after 48 hrs by SRB assay
Malme-3M = assay: Growth inhibition of human Malme-3M cells measured after 48 hrs by SRB assay
MDA-MB-231 = assay: Growth inhibition of human MDA-MB-231 cells measured after 48 hrs by SRB assay
MDA-MB-435 = assay: Growth inhibition of human MDA-MB-435 cells measured after 48 hrs by SRB assay
SW-620 = assay: Growth inhibition of human SW-620 cells measured after 48 hrs by SRB assay
SF-268 = assay: Growth inhibition of human SF-268 cells measured after 48 hrs by SRB assay
KM12 = assay: Growth inhibition of human KM12 cells measured after 48 hrs by SRB assay
PC-3 = assay: Growth inhibition of human PC-3 cells measured after 48 hrs by SRB assay
K562 = assay: Growth inhibition of human K562 cells measured after 48 hrs by SRB assay
SF-539 = assay: Growth inhibition of human SF-539 cells measured after 48 hrs by SRB assay
SNB-75 = assay: Growth inhibition of human SNB-75 cells measured after 48 hrs by SRB assay
SR = assay: Growth inhibition of human SR cells measured after 48 hrs by SRB assay
RXF 393 = assay: Growth inhibition of human RXF 393 cells measured after 48 hrs by SRB assay
OVCAR-5 = assay: Growth inhibition of human OVCAR-5 cells measured after 48 hrs by SRB assay
OVCAR-3 = assay: Growth inhibition of human OVCAR-3 cells measured after 48 hrs by SRB assay
NCI-H322M = assay: Growth inhibition of human NCI-H322M cells measured after 48 hrs by SRB assay
UACC-257 = assay: Growth inhibition of human UACC-257 cells measured after 48 hrs by SRB assay
HOP-62 = assay: Growth inhibition of human HOP-62 cells measured after 48 hrs by SRB assay
NCI-H226 = assay: Growth inhibition of human NCI-H226 cells measured after 48 hrs by SRB assay
MOLT-4 = assay: Growth inhibition of human MOLT-4 cells measured after 48 hrs by SRB assay
RPMI-8226 = assay: Growth inhibition of human RPMI-8226 cells measured after 48 hrs by SRB assay
SNB-19 = assay: Growth inhibition of human SNB-19 cells measured after 48 hrs by SRB assay
UACC-62 = assay: Growth inhibition of human UACC-62 cells measured after 48 hrs by SRB assay
MCF7 = assay: Growth inhibition of human MCF7 cells measured after 48 hrs by SRB assay
SK-MEL-2 = assay: Growth inhibition of human SK-MEL-2 cells measured after 48 hrs by SRB assay
NCI-H460 = assay: Growth inhibition of human NCI-H460 cells measured after 48 hrs by SRB assay
786-0 = assay: Growth inhibition of human 786-0 cells measured after 48 hrs by SRB assay

SMILES: CCO[C@H]1C=C2CC[C@@H]3[C@H]([C@@H](O)C[C@]4(C)[C@@H](c5ccc(=O)oc5)CC[C@]34O)[C@@]2(C)CC1
- GI50 (HCT-116): 0.716 µM
- GI50 (NCI-H23): 1.36 µM
- GI50 (SN12C): 0.905 µM
- GI50 (HOP-92): 0.757 µM
- GI50 (A498): 0.46 µM
- GI50 (SK-MEL-5): 1.36 µM
- GI50 (M14): 1.93 µM
- GI50 (IGROV-1): 1.84 µM
- GI50 (CCRF-CEM): 0.233 µM
- GI50 (A549): 0.434 µM
- GI50 (HCT-15): 1.8 µM
- GI50 (COLO 205): 4.22 µM
- GI50 (HCC 2998): 4.51 µM
- GI50 (NCI/ADR-RES): 1.61 µM
- GI50 (HL-60): 0.649 µM
- GI50 (SK-OV-3): 1.91 µM
- GI50 (BT-549): 0.946 µM
- GI50 (CAKI-1): 1.15 µM
- GI50 (T47D): 2.17 µM
- GI50 (MDA-MB-468): > 0.55 µM
- GI50 (ACHN): 0.251 µM
- GI50 (TK-10): 1.3 µM
- GI50 (OVCAR-8): 1.67 µM
- GI50 (SK-MEL-28): 1.66 µM
- GI50 (NCI-H522): 0.252 µM
- GI50 (SF-295): 1.2 µM
- GI50 (UO-31): 0.94 µM
- GI50 (Hs-578T): 0.369 µM
- GI50 (LOX IMVI): 1.8 µM
- GI50 (DU-145): 0.423 µM
- GI50 (Malme-3M): 1.8 µM
- GI50 (MDA-MB-231): > 5.75 µM
- GI50 (MDA-MB-435): 1.4 µM
- GI50 (SW-620): 0.911 µM
- GI50 (SF-268): 0.471 µM
- GI50 (KM12): 2.2 µM
- GI50 (PC-3): 0.839 µM
- GI50 (K562): 1.27 µM
- GI50 (SF-539): 0.968 µM
- GI50 (SNB-75): 1.06 µM
- GI50 (SR): 0.418 µM
- GI50 (RXF 393): 0.709 µM
- GI50 (OVCAR-5): 2.03 µM
- GI50 (OVCAR-3): 0.618 µM
- GI50 (NCI-H322M): 1.4 µM
- GI50 (UACC-257): 1.89 µM
- GI50 (HOP-62): 0.974 µM
- GI50 (NCI-H226): 1.77 µM
- GI50 (MOLT-4): 0.189 µM
- GI50 (RPMI-8226): 1.45 µM
- GI50 (SNB-19): 2.35 µM
- GI50 (UACC-62): 1.27 µM
- GI50 (MCF7): 1.52 µM
- GI50 (SK-MEL-2): 1.2 µM
- GI50 (NCI-H460): 0.247 µM
- GI50 (786-0): 0.927 µM
